Reference: PubChem BioAssay AID248 (DTP/NCI, 2004)
Values joined by “and” are separate entries in the source; they are usually repeats but may differ in a detail not shown here. Identical values can stand only once. Inconclusive results and toxic doses are left out. Rule as the data show it: active = T/C of 150% or more; inactive = T/C below 125%.

Tested on: L1210 leukemia ip in BDF1 mice, survival T/C
Test: NCI In Vivo Anticancer Drug Screen. Data for tumor model L1210 Leukemia (intraperitoneal) in B6D2F1 (BDF1) mice
Settings: endpoint: mean survival time, higher = longer survival
Outline: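 Transplantable tumor model; survival measured in treated vs vehicle control mice. Value = treated/control.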

[1] = dose: 100.0 mg/kg/injection, schedule: Q01DX009 (ip), vehicle: saline with Tween-80
[2] = dose: 100.0 mg/kg/injection, schedule: Q01DX009 (ip), vehicle: saline
[3] = dose: 100.0 mg/kg/injection, schedule: Q04DX003 (ip), vehicle: saline with Tween-80
[4] = dose: 100.0 mg/kg/injection, schedule: Q04DX003 (ip), vehicle: saline
[5] = dose: 200.0 mg/kg/injection, schedule: Q01DX009 (ip), vehicle: saline with Tween-80
[6] = dose: 200.0 mg/kg/injection, schedule: Q01DX009 (ip), vehicle: saline
[7] = dose: 200.0 mg/kg/injection, schedule: Q04DX003 (ip), vehicle: saline with Tween-80
[8] = dose: 200.0 mg/kg/injection, schedule: Q04DX003 (ip), vehicle: saline
[9] = dose: 400.0 mg/kg/injection, schedule: Q04DX003 (ip), vehicle: saline with Tween-80
[10] = dose: 100.0 mg/kg/injection, schedule: Q01DX001 (ip), vehicle: carboxymethylcellulose (CMC)
[11] = dose: 200.0 mg/kg/injection, schedule: Q01DX001 (ip), vehicle: carboxymethylcellulose (CMC)
[12] = dose: 400.0 mg/kg/injection, schedule: Q01DX001 (ip), vehicle: carboxymethylcellulose (CMC)
[13] = dose: 100.0 mg/kg/injection, schedule: Q01DX001 (ip), vehicle: saline
[14] = dose: 200.0 mg/kg/injection, schedule: Q01DX001 (ip), vehicle: saline
[15] = dose: 400.0 mg/kg/injection, schedule: Q01DX001 (ip), vehicle: saline
[16] = dose: 100.0 mg/kg/injection, schedule: Q04DX003 (ip), vehicle: Klucel (hydroxypropylcellulose) (HPC)
[17] = dose: 200.0 mg/kg/injection, schedule: Q04DX003 (ip), vehicle: Klucel (hydroxypropylcellulose) (HPC)
[18] = dose: 400.0 mg/kg/injection, schedule: Q04DX003 (ip), vehicle: Klucel (hydroxypropylcellulose) (HPC)
[19] = dose: 75.0 mg/kg/injection, schedule: Q01DX001 (ip), vehicle: saline

Measured: T/C

OC1OC(COC(c2ccccc2)(c2ccccc2)c2ccccc2)C(O)C(O)C1O (stereo unspecified)
inactive: dose: 50.0 mg/kg/injection, schedule: Q01DX009 (ip), vehicle: saline 95 % of control | [1] 100 % of control and 102 % of control | [2] 98 % of control | [3] 102 % of control | [4] 102 % of control | dose: 100.0 mg/kg/injection, schedule: Q04DX003 (ip), vehicle: water 105 % of control | [5] 95 % of control and 96 % of control | [6] 95 % of control | [7] 96 % of control | [8] 93 % of control | dose: 200.0 mg/kg/injection, schedule: Q04DX003 (ip), vehicle: water 97 % of control | dose: 400.0 mg/kg/injection, schedule: Q01DX009 (ip), vehicle: saline with Tween-80 104 % of control | [9] 94 % of control | dose: 400.0 mg/kg/injection, schedule: Q04DX003 (ip), vehicle: water 96 % of control

O=C(O)c1c[nH]c2c(C(F)(F)F)cccc2c1=O
inactive: dose: 50.0 mg/kg/injection, schedule: Q01DX001 (ip), vehicle: carboxymethylcellulose (CMC) 88 % of control | [10] 98 % of control | [11] 88 % of control | [12] 90 % of control

O=S(=O)(O)CBr
inactive: [13] 107 % of control | [2] 91 % of control | [4] 100 % of control | [14] 106 % of control | [6] 96 % of control | [8] 100 % of control | [15] 109 % of control | dose: 400.0 mg/kg/injection, schedule: Q01DX009 (ip), vehicle: saline 98 % of control | dose: 400.0 mg/kg/injection, schedule: Q04DX003 (ip), vehicle: saline 106 % of control

Cc1cc(N)c2ccccc2[n+]1CCCCCCCCCC[n+]1c(C)cc(N)c2ccccc21
inactive: dose: 0.75 mg/kg/injection, schedule: Q01DX009 (ip), vehicle: Klucel (hydroxypropylcellulose) (HPC) 100 % of control | dose: 1.5 mg/kg/injection, schedule: Q01DX009 (ip), vehicle: Klucel (hydroxypropylcellulose) (HPC) 109 % of control | dose: 1.5 mg/kg/injection, schedule: Q04DX003 (ip), vehicle: Klucel (hydroxypropylcellulose) (HPC) 103 % of control | dose: 3.0 mg/kg/injection, schedule: Q01DX009 (ip), vehicle: Klucel (hydroxypropylcellulose) (HPC) 119 % of control and 124 % of control | dose: 3.0 mg/kg/injection, schedule: Q04DX003 (ip), vehicle: Klucel (hydroxypropylcellulose) (HPC) 110 % of control | dose: 6.0 mg/kg/injection, schedule: Q04DX003 (ip), vehicle: Klucel (hydroxypropylcellulose) (HPC) 116 % of control | dose: 12.5 mg/kg/injection, schedule: Q04DX003 (ip), vehicle: Klucel (hydroxypropylcellulose) (HPC) 103 % of control

c1ccc(-c2cnc(-c3ccccc3)[nH]2)cc1
inactive: [3] 97 % of control | [7] 100 % of control | [9] 100 % of control

O=C1NC(=O)C(c2ccc(Cl)cc2)N1 (stereo unspecified)
inactive: dose: 50.0 mg/kg/injection, schedule: Q01DX001 (ip), vehicle: saline 100 % of control | [13] 94 % of control | [14] 97 % of control | [15] 96 % of control

Cc1cc(OC(=O)c2ccc(N(C)C)cc2)ccc1[N+](=O)[O-]
inactive: dose: 100.0 mg/kg/injection, schedule: Q01DX009 (ip), vehicle: Klucel (hydroxypropylcellulose) (HPC) 95 % of control | [16] 96 % of control | dose: 200.0 mg/kg/injection, schedule: Q01DX009 (ip), vehicle: Klucel (hydroxypropylcellulose) (HPC) 94 % of control | [17] 91 % of control | dose: 400.0 mg/kg/injection, schedule: Q01DX009 (ip), vehicle: Klucel (hydroxypropylcellulose) (HPC) 97 % of control | [18] 95 % of control

COC(=O)/C(Cl)=C(\Cl)C(=O)OC
inactive: [1] 95 % of control | [16] 96 % of control | [3] 102 % of control | [7] 107 % of control

Clc1ccc(/C=N/c2ccccn2)cc1
inactive: [13] 102 % of control | [14] 102 % of control | [15] 100 % of control

CSc1ccc(NC(=O)Oc2ccccn2)cc1
inactive: dose: 100.0 mg/kg/injection, schedule: Q01DX001 (ip), vehicle: saline with Tween-80 89 % of control | [1] 97 % of control | dose: 100.0 mg/kg/injection, schedule: Q04DX002 (ip), vehicle: saline with Tween-80 93 % of control and 94 % of control | dose: 200.0 mg/kg/injection, schedule: Q01DX001 (ip), vehicle: saline with Tween-80 103 % of control | [5] 90 % of control | dose: 200.0 mg/kg/injection, schedule: Q04DX002 (ip), vehicle: saline with Tween-80 96 % of control and 114 % of control | [7] 88 % of control | dose: 400.0 mg/kg/injection, schedule: Q01DX001 (ip), vehicle: saline with Tween-80 105 % of control | dose: 400.0 mg/kg/injection, schedule: Q04DX002 (ip), vehicle: saline with Tween-80 95 % of control and 96 % of control | [9] 97 % of control

CCCCCC[n+]1ccc(C#N)cc1
inactive: [19] 101 % of control

O=C(O)c1ccc(S(=O)(=O)c2ccc(C(=O)O)cc2)cc1
inactive: [16] 103 % of control | [17] 97 % of control | [18] 88 % of control

CSCCC(NC(=O)C(C)N)C(=O)O (stereo unspecified)
inactive: [13] 90 % of control | [14] 92 % of control | [15] 101 % of control

C/C(=N/N=C(N)N)c1cccc(O)c1
inactive: dose: 15.0 mg/kg/injection, schedule: Q01DX Z (ip), vehicle: methylcellulose (MC) 107 % of control | dose: 30.0 mg/kg/injection, schedule: Q01DX Z (ip), vehicle: methylcellulose (MC) 110 % of control | dose: 30.0 mg/kg/injection, schedule: Q01DX Z (oral), vehicle: methylcellulose (MC) 89 % of control | dose: 60.0 mg/kg/injection, schedule: Q01DX Z (ip), vehicle: methylcellulose (MC) 97 % of control

Cc1ccc(NC(=O)Oc2cccnc2)cc1
inactive: dose: 12.5 mg/kg/injection, schedule: Q01DX009 (ip), vehicle: Klucel (hydroxypropylcellulose) (HPC) 107 % of control | dose: 25.0 mg/kg/injection, schedule: Q01DX009 (ip), vehicle: Klucel (hydroxypropylcellulose) (HPC) 107 % of control | dose: 50.0 mg/kg/injection, schedule: Q01DX009 (ip), vehicle: Klucel (hydroxypropylcellulose) (HPC) 96 % of control

O=[N+]([O-])c1cc([N+](=O)[O-])c2ccc(Cl)nc2c1O
inactive: [13] 98 % of control | [14] 98 % of control | [15] 96 % of control

CSC(SC)=C(C#N)C#N
inactive: dose: 25.0 mg/kg/injection, schedule: Q04DX002 (ip), vehicle: saline 101 % of control

CCCCCC(=O)NCC(=O)O
inactive: [3] 94 % of control | [7] 97 % of control | [9] 94 % of control

O=C(Sc1c[nH]c(=O)[nH]c1=O)c1ccc(N(CCCl)CCCl)cc1
inactive: dose: 25.0 mg/kg/injection, schedule: Q04DX003 (ip), vehicle: Klucel (hydroxypropylcellulose) (HPC) 96 % of control | dose: 50.0 mg/kg/injection, schedule: Q04DX003 (ip), vehicle: Klucel (hydroxypropylcellulose) (HPC) 102 % of control | [16] 94 % of control | [17] 100 % of control | [18] 105 % of control

c1ccc(C2OCCOC2c2ccccc2)cc1 (stereo unspecified)
inactive: [10] 101 % of control | [11] 103 % of control | [12] 101 % of control

COc1cc2c(cc1OC)C1(CCCl)C3CC4C(=CCOC5CC(=O)N2C1C54)CN3C(=O)Cc1ccccc1 (stereo unspecified)
inactive: [19] 100 % of control

NC(=S)c1[nH]cnc1N
inactive: dose: 27.0 mg/kg/injection, schedule: Q01DX015 (ip), vehicle: saline 95 % of control | dose: 40.0 mg/kg/injection, schedule: Q01DX015 (ip), vehicle: saline 93 % of control | dose: 60.0 mg/kg/injection, schedule: Q01DX015 (ip), vehicle: saline 101 % of control | dose: 100.0 mg/kg/injection, schedule: Q01DX001 (ip), vehicle: other 98 % of control | [13] 110 % of control | dose: 200.0 mg/kg/injection, schedule: Q01DX001 (ip), vehicle: other 95 % of control | dose: 400.0 mg/kg/injection, schedule: Q01DX001 (ip), vehicle: other 103 % of control

C=C1OC(n2cnc3c(=N)n(O)cnc32)C2OC(C)(C)OC12 (stereo unspecified)
inactive: dose: 100.0 mg/kg/injection, schedule: Q01DX005 (ip), vehicle: saline 96 % of control | dose: 200.0 mg/kg/injection, schedule: Q01DX005 (ip), vehicle: saline 102 % of control

Clc1ccc(/C=N/N2CCN(/N=C/c3ccc(Cl)cc3)CC2)cc1
inactive: [10] 96 % of control | [11] 96 % of control | [12] 96 % of control
